# Data: patent US20050203124A1, “Compounds for the sustained reduction of body weight” (Boehringer Ingelheim International GmbH, priority 2004, published 2005)
# Assay: Clinical studies: monitoring of body weight (vital sign) under multiple ascending doses
# Type: in vivo, patients
# Description: Clinical Studies have been carried out in order to compare the maintenance doses of the compounds of formula IA, including its metabolite IB, that were used in 3 studies.
# The studies were randomized, double-blind, placebo-controlled per ascending dose group. The studies were designed to assess the safety, tolerability, phamacokinetics (PK), and preliminary efficacy of multiple ascending doses of the compound of formula IA in patients with possible Alzheimer's Disease (AD).
# Two studies were performed consecutively with 0.125/0.25 and 0.5/1.0 mg of the compound of formula IA daily every morning to assess the safety and preliminary efficacy of multiple given for 28 days in those patients. After the completion of the first two studies a […] was initiated in elderly volunteers in order to investigate the safety and PK of a median dose of 0.75 mg of the compound of formula IA daily in the morning than were used in the first two studies. Depending on the maintenance dose an at least double loading dose was administrated for up to 6 days.
# To determine the safety, tolerability of ascending multiple doses of the compound of formula IA (5 dose levels) given for 28 days, and to determine the preliminary multiple dose (4-week) pharmacokinetics (PK) of the compound of formula IA. […]
smiles,measurement,setting,value
CCOC[C@H]1C2CCC(C[C@@H]1c1ccc(Cl)c(Cl)c1)N2C (some centres unmarked) [Compound of formula IA],"body weight under treatment (change in weight, FIGS. 3 and 4)","patients with possible Alzheimer's Disease / elderly volunteers, aged 55 to 80, 0.125 to 1.0 mg daily for 28 days, placebo-controlled",clearly reduces the bodyweight
same,"body weight after the treatment has been stopped (change in weight, FIGS. 5 and 6)","same studies, follow-up 56 to 70 days after beginning of the 28-day treatment",still further reduced
